Experimental findings from paper PMC6584481, “Quercetin protects rats from catheter‐related Staphylococcus aureus infections by inhibiting coagulase activity” (Journal of Cellular and Molecular Medicine, 2019) are described below.

Molecules are shown by their SMILES.

What all share (type): binding
Assay [1] deals with T1, Coagulase (Coa) (Staphylococcus aureus, UniProt P17855, H230A).
T1 sequence (P17855 27-715 H230A): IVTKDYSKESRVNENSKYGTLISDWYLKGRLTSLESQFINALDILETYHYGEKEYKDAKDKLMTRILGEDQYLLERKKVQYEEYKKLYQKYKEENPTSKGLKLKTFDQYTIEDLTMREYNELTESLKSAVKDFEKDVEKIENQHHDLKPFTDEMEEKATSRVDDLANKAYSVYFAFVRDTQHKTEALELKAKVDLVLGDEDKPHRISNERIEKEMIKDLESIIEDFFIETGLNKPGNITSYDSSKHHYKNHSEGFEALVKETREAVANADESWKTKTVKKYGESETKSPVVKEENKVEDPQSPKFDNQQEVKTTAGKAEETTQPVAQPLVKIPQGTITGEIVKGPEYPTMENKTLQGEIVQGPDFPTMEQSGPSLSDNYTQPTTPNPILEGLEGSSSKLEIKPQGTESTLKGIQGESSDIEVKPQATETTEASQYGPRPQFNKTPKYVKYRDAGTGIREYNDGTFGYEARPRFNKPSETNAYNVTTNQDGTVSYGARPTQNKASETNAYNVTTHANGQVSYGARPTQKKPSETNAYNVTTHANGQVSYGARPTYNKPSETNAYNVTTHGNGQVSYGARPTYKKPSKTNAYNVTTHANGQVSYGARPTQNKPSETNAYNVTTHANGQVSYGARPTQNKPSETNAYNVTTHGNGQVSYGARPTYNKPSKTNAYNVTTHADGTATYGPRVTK
Put plainly: fluorescence spectroscopy quenching (KA). To be noted: read-out: H228A (converted).

The target in assay [2] is T2, Coagulase (Coa) (Staphylococcus aureus, UniProt P17855, L223A).
T2 sequence (P17855 27-715 L223A): T1 sequence (P17855 27-715 H230A)
Kind of assay: fluorescence spectroscopy quenching (KA). To be noted: read-out: L221A (converted).

Assay [3] concerns the target Coagulase (Coa) (Staphylococcus aureus, UniProt P17855). Kind of assay: fluorescence spectroscopy quenching (KA); thermal shift of […]°C; plasma/blood coagulation inhibition with recombinant Coa. To be noted: read-out: WT-Coa (converted).

Turning to `O=c1c(O)c(-c2ccc(O)c(O)c2)oc2cc(O)cc(O)c12` [quercetin, 3,3′,4′,5,7‐pentahydroxyflavone], the results for the Kd at Coagulase (Coa) [1], at Coagulase (Coa) [2] and on Coagulase (Coa) [3] were 25 µM, 32.3 µM and 21.7 µM, respectively.
